The values that follow come from PubChem BioAssay (NCI).

Values joined by “and” are separate entries in the source; they are usually repeats but may differ in a detail not shown here. Identical values can stand only once.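 Results reflect a 48-hour exposure of cells in 96-well plates to compound at five concentrations. GI50 = concentration required for 50% inhibition of growth. The concentration for full growth arrest is given as TGI.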 Where a SMILES comes first, the peptide text is derived from it. [ ]: non-standard residue; d: D form. The star is where a group is joined. Bn2Val = CC(C)[C@@H](C(=O)*)N(Cc1ccccc1)Cc1ccccc1; NH(3,4-diMeO-benzyl) = COc1ccc(CN*)cc1OC; NMeV = CN[C@H](C(=O)O)C(C)C; dNMeA = CN[C@H](C)C(=O)O A value given as a limit tells only on which side of the number the result lay.

The term GI50 denotes the concentration at which growth is held to half of that of the control. One may read the TGI as the concentration at which net growth stops. A lower TGI goes with greater sensitivity of the cells.

Among the test systems are U251 CNS; UO-31 renal; KM12 colon; TK-10 renal; OVCAR-5 ovarian; SR leukemia; HCT-116 colon; A549 NSCLC; RXF 393 renal; OVCAR-8 ovarian.
Test in all cases: DTP human tumour cell line panel, 48 h

`COc1ccc(-n2cc(-c3ccc(OC)c(OC)c3)[nH]c2=S)cc1Cl`: the GI50 in the assay with U251 CNS is 41.1 µM; in the assay on UO-31 renal, above 100 µM; with KM12 colon, above 100 µM; with TK-10 renal, above 100 µM; in the assay with OVCAR-5 ovarian, above 100 µM; in the assay on SR leukemia, above 100 µM. The GI50 in the assay on HCT-116 colon and in the assay with A549 NSCLC was above 100 µM throughout. Besides, the concentration for total growth inhibition (TGI) in the assay with U251 CNS, in the assay on UO-31 renal, in the assay with KM12 colon, with TK-10 renal, with OVCAR-5 ovarian and in the assay on SR leukemia was above 100 µM throughout. Moreover, the TGI in the assay with HCT-116 colon and with A549 NSCLC was above 100 µM in each case.
On to `CN(C)c1ccc2c(c1)oc(=O)c1ccccc12`, for which the TGI stood at 24.3 µM in the assay on U251 CNS; 40 µM in the assay with TK-10 renal; 30.2 µM with OVCAR-5 ovarian; 21.5 µM with SR leukemia; 19.3 µM in the assay with RXF 393 renal; 25.9 µM in the assay with HCT-116 colon. Further, the concentration for total growth inhibition (TGI) with OVCAR-8 ovarian is 25.4 µM; with A549 NSCLC it was 34.6 µM.
Take `ClCc1ccccc1CSc1ncnc2nc[nH]c12`: the GI50 in the assay on U251 CNS, in the assay on UO-31 renal, with KM12 colon, with OVCAR-5 ovarian, in the assay on SR leukemia and in the assay on RXF 393 renal was above 60 µM throughout. In addition, the GI50 in the assay with HCT-116 colon and in the assay on OVCAR-8 ovarian was above 60 µM throughout. In addition, the TGI in the assay with U251 CNS, with UO-31 renal, with KM12 colon, with OVCAR-5 ovarian, with SR leukemia and with RXF 393 renal was above 60 µM each time. The TGI in the assay on HCT-116 colon and in the assay on OVCAR-8 ovarian was above 60 µM in each case.
Take `OCc1c(-c2cccc3ccccc23)sc(-c2cccc3ccccc23)c1CO`: the TGI in the assay with U251 CNS worked out at 24.9 µM; with UO-31 renal, 23.7 µM; in the assay with KM12 colon it was 26.4 µM; in the assay on TK-10 renal it was 26.9 µM; in the assay with OVCAR-5 ovarian, 30.9 µM; in the assay on SR leukemia, 44 µM. The TGI in the assay on OVCAR-8 ovarian stood at 25.7 µM.
With `COC(=O)C(CC(=O)c1cc2c(cc1I)OCO2)Cc1cc(OC)c(OC)c(OC)c1I` (stereo unspecified), the TGI with U251 CNS, with KM12 colon, in the assay on TK-10 renal, in the assay on OVCAR-5 ovarian, in the assay with SR leukemia and in the assay with RXF 393 renal was above 100 µM throughout. For the same compound, the TGI in the assay with HCT-116 colon, in the assay on OVCAR-8 ovarian and with A549 NSCLC was above 100 µM each time.
Take `Cc1c(N2C(=O)/C(=C\c3ccccc3O)N=C2c2ccccc2)c(=O)n(-c2ccccc2)n1C`: the GI50 is 40.2 µM in the assay on U251 CNS; above 100 µM in the assay on UO-31 renal; 21 µM with KM12 colon; 33.4 µM in the assay with TK-10 renal; above 100 µM in the assay on OVCAR-5 ovarian; 53.8 µM in the assay on RXF 393 renal. The GI50 in the assay on HCT-116 colon was 51.6 µM; in the assay with OVCAR-8 ovarian, 63.2 µM; in the assay with A549 NSCLC, above 100 µM. Also, the TGI in the assay with U251 CNS, in the assay with UO-31 renal, with KM12 colon, in the assay on TK-10 renal, with OVCAR-5 ovarian and in the assay with RXF 393 renal was above 100 µM throughout. Further, the TGI in the assay on HCT-116 colon, in the assay on OVCAR-8 ovarian and in the assay on A549 NSCLC was above 100 µM each time.
Turning to `COc1ccc(CNC(=O)[C@@H](C)N(C)C(=O)[C@@H]2CCCN2C(=O)[C@H](C(C)C)N(C)C(=O)[C@@H](NC(=O)[C@H](C(C)C)N(Cc2ccccc2)Cc2ccccc2)C(C)C)cc1OC` (Bn2Val-V[NMeV]P[dNMeA]-{NH(3,4-diMeO-benzyl)}), the total growth inhibition concentration (TGI) was 22.1 µM and 20 µM with U251 CNS; above 100 µM with UO-31 renal; 30 µM and 27.4 µM in the assay on KM12 colon; 50 µM and 61.6 µM in the assay on TK-10 renal; 16.6 µM and 9.77 µM with OVCAR-5 ovarian; 12.8 µM and 15 µM with RXF 393 renal. For the same compound, the TGI with HCT-116 colon is 14.4 µM and 17.7 µM; in the assay with OVCAR-8 ovarian, 50 µM and > 100 µM; in the assay on A549 NSCLC, 50 µM and > 100 µM. The GI50 in the assay with OVCAR-5 ovarian is 2.79 µM; in the assay with RXF 393 renal it was 3.61 µM; in the assay with HCT-116 colon, 4.87 µM; in the assay with OVCAR-8 ovarian, 16.3 µM; in the assay with A549 NSCLC it was 53.3 µM.
For `O=c1[nH]c(=O)n(C2CC(O)C(CO)O2)cc1C#Cc1c(F)c(F)c(F)c(F)c1F` (stereo unspecified), the TGI in the assay with U251 CNS, with UO-31 renal, in the assay on KM12 colon, in the assay on OVCAR-5 ovarian, with SR leukemia and in the assay on HCT-116 colon was above 100 µM throughout. Besides, the TGI with OVCAR-8 ovarian and in the assay with A549 NSCLC was above 100 µM each time.
`CCCCCCCCCCCCOC1C(CNCC2OC3OC(C)(C)OC3C2NC(=O)Nc2ccc(C(=O)OCC)cc2)OC2OC(C)(C)OC21` (stereo unspecified): the GI50 with U251 CNS was 1.94 µM; with UO-31 renal it was 3.96 µM; in the assay on KM12 colon, 1.96 µM; in the assay on TK-10 renal, 4.13 µM; with OVCAR-5 ovarian, 4.18 µM; with RXF 393 renal, 2.73 µM. In addition, the GI50 was 1.72 µM in the assay with HCT-116 colon, 2.16 µM in the assay with OVCAR-8 ovarian and 2.23 µM with A549 NSCLC. Moreover, the TGI was 3.71 µM in the assay on U251 CNS; 13.8 µM with UO-31 renal; 3.69 µM with KM12 colon; 15.2 µM in the assay on TK-10 renal; 17 µM in the assay on OVCAR-5 ovarian; 4.8 µM in the assay with RXF 393 renal. Also, the results for the TGI with HCT-116 colon, in the assay with OVCAR-8 ovarian and in the assay on A549 NSCLC were 3.14 µM, 4.3 µM and 4.76 µM, respectively.
For `CN1CCCNCCN(CCc2ccccn2)CCCN(C)CC1`, the TGI in the assay on U251 CNS was above 100 µM; in the assay on UO-31 renal, above 100 µM; in the assay with KM12 colon, above 100 µM; in the assay with TK-10 renal it was above 100 µM; with OVCAR-5 ovarian, above 100 µM; with SR leukemia, 57.3 µM. The TGI in the assay with HCT-116 colon, in the assay with OVCAR-8 ovarian and in the assay on A549 NSCLC was above 100 µM in each case.
Turning to `S=C1NCCN1C1=Nc2ccccc2CO1`, the GI50 in the assay on U251 CNS, with UO-31 renal, with KM12 colon, with TK-10 renal, in the assay on OVCAR-5 ovarian and in the assay with SR leukemia was above 100 µM throughout. Further, the GI50 in the assay with HCT-116 colon, in the assay on OVCAR-8 ovarian and in the assay with A549 NSCLC was above 100 µM throughout. Moreover, the TGI in the assay with U251 CNS, in the assay with UO-31 renal, with KM12 colon, in the assay on TK-10 renal, with OVCAR-5 ovarian and in the assay with SR leukemia was above 100 µM in each case. Besides, the TGI in the assay with HCT-116 colon, with OVCAR-8 ovarian and in the assay on A549 NSCLC was above 100 µM in each case.
